# Measured values published in PMC12301332, “Biased antagonism of a series of bicyclic CXCR2 intracellular allosteric modulators” (Frontiers in Pharmacology, 2025).
# T1: CXCR2 (Homo sapiens, UniProt P25025)
# T1 construct: expressed in transfected cells
# T1 sequence (P25025 1-360): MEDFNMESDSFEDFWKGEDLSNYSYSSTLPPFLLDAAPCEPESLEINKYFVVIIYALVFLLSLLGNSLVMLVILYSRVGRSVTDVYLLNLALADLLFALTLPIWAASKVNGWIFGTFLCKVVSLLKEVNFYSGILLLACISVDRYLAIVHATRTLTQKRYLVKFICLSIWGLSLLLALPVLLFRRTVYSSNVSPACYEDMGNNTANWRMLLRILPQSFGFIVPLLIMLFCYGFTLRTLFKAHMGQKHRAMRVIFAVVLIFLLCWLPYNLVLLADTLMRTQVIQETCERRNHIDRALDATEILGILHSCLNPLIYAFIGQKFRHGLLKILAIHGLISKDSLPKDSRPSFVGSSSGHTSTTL
# B1: CXCL7: recombinant human ELR+ chemokine, CXCR2 ligand (PeproTech) (protein, UniProt P02775 59-128, looked up)
# Neutrophil-activating peptide …: AELRCMCIKTTSGIHPKNIQSLEVIGKGTHCNQVEVIATLKDGRKICLDPDAPRIKKIVQKKLAGDESAD
# modifications: Neutrophil-activating peptide 2
# How the values were obtained:
# [1] = biological target: T1, CXCR2; assay: NanoBRET β-arrestin1 recruitment inhibition assay (NanoLux) in HEK293A cells; assay type: cell-based; details: normalized to Imax of navarixin = 100%, n = 3
# Method: Cells were trypsinized and resuspended at 3 × 10^5 cell/mL in the growth medium, whereafter they were incubated for 2 hours at RT. Cells were transfected in suspension using FuGENE® HD Transfection Reagent at a 3:1 reagent to DNA ratio in Opti-MEMTM I Reduced-Serum Medium, with the final DNA concentration of 1 μg/μL. The transfection mixture was incubated for 10 min at RT before adding it to the cell suspension. Transfected cells were seeded at 3.0 × 10^4 cells/well in a white, clear, flat-bottom 96-well plate coated with 100 μg/mL poly-D-lysin ([…], Sigma Aldrich) and incubated for 48 h at 37°C and 5% CO2. HEK293A cells were transiently co-transfected with plasmids encoding β-arrestin1 protein tagged with NLuc (donor) and CXCR2 protein tagged with mNeonGreen (mNG) acceptor in a 1:10 donor to acceptor ratio, as described previously ([Luís et al., 2022]). All subsequent steps are identical to those in “NanoBRET-based G protein activation inhibition assay,” which are described above. Measurements were acquired using a 440- to 480-nm donor emission filter (#0200-6179, Molecular Devices) and a 515- to 575-nm acceptor emission filter (#0200-6203, Molecular Devices) BRET ratios were extracted from ScreenWorks software (Molecular Devices) and represent the ratio between the acceptor emission of […]2 or mNG (G protein or β-arrestin recruitment, respectively) and NLuc donor emission. The basal BRET ratio was defined as the average BRET ratio of the five consecutive readings preceding ligand addition. Changes in BRET values post ligand administration (ΔBRET) were calculated for each well as a percentage difference to the previously defined basal BRET ratio. Average ΔBRET values were baseline corrected by subtracting the average negative control BRET ratio (unstimulated condition). […] AUCs were normalized to the positive control (stimulated condition); whereafter, dose-response curves were fitted to log (inhibitor) vs response (three parameters) in GraphPad 10.2.0 (GraphPad Software). […] Calculation 1: calculation of the BRET signal. • 1. […] NC correctedΔBRET=Δ[…]. • 4. a. Neg AUC of NC correctedΔBRET=Gα activation read out. b. Pos AUC of NC correctedΔBRET=β-arrestin recruitment.
# [2] = biological target: T1, CXCR2; assay: Bias analysis (bias plot, bias index) of β-arrestin1 recruitment inhibition versus Gαi1 activation inhibition, navarixin as reference; assay type: cell-based; details: all ELR+ chemokines; navarixin as reference antagonist
# Method: For signaling bias calculations, constraints were set to bottom values equal to zero. The calculated top values generated by nonlinear fit log (inhibitor) vs response (three parameters) in GraphPad 10.2.1 were taken as Imax. […] The bias index values were calculated, as is shown in calculation 2. Briefly, log(Imax/IC50) was calculated. […] Finally, the bias index was calculated by subtracting the ∆log (Imax/IC50) of the tested compound from the stated reference pathway from that of the pathway of interest. […] The statistical significance of H1 was evaluated using a one-sample T-test with Benjamini-Hochberg correction applied for multiple comparisons, whereas H2 was assessed using a one-way ANOVA followed by Tukey’s test.
# Bias index=∆LogImax/IC50P1:β−arr1−∆LogImax/IC50P2:Gai1 .
# Bias plots are equimolar comparisons between the two pathways of interest.
# [3] = biological target: T1, CXCR2; assay: NanoBRET-based G protein activation inhibition assay (REGA-SIGN Gαi1 dissociation) in HEK293A.CXCR2 cells; assay type: cell-based; details: normalized to Imax of navarixin = 100%, n = 3
# Method: Cells were trypsinized and resuspended at 3 × 10^5 cell/mL in the growth medium, whereafter they were incubated for 2 hours at RT. Cells were transfected in suspension using FuGENE® HD Transfection Reagent at a 3:1 reagent to DNA ratio in Opti-MEMTM I Reduced-Serum Medium, with the final DNA concentration of 1 μg/μL. The transfection mixture was incubated for 10 min at RT before adding it to the cell suspension. Transfected cells were seeded at 3.0 × 10^4 cells/well in a white, clear, flat-bottom 96-well plate coated with 100 μg/mL poly-D-lysin ([…], Sigma Aldrich) and incubated for 48 h at 37°C and 5% CO2. […] (2023)]. Following the 48-h incubation period, cells were washed with the assay buffer. Compounds were serially diluted in 1:500 Nano-Glo® Vivazine^TM working solution (#N2581, Promega), and 90 μL of compound/Vivazine mix was added, followed by incubation for 45 min at 37°C and 5% CO2. Plates were transferred to the FLIPR Penta system (Molecular Devices) at 37°C, and all steps onward are automated and performed by the FLIPR Penta system. After a 10-min equilibration period, the baseline BRET signal was determined by five consecutive reads followed by automatic administration of 10 μL of 10× ligand (Table 1) to the cell plate. Changes in the BRET signal was measured for 10 min, with each read spaced by 2.5 s. […] BRET ratios were extracted from ScreenWorks software (Molecular Devices) and represent the ratio between the acceptor emission of […]2 or mNG (G protein or β-arrestin recruitment, respectively) and NLuc donor emission. The basal BRET ratio was defined as the average BRET ratio of the five consecutive readings preceding ligand addition. Changes in BRET values post ligand administration (ΔBRET) were calculated for each well as a percentage difference to the previously defined basal BRET ratio. Average ΔBRET values were baseline corrected by subtracting the average negative control BRET ratio (unstimulated condition). […] AUCs were normalized to the positive control (stimulated condition); whereafter, dose-response curves were fitted to log (inhibitor) vs response (three parameters) in GraphPad 10.2.0 (GraphPad Software). […] Calculation 1: calculation of the BRET signal. • 1. […] NC correctedΔBRET=Δ[…]. • 4. a. Neg AUC of NC correctedΔBRET=Gα activation read out. b. Pos AUC of NC correctedΔBRET=β-arrestin recruitment.
# [4] = biological target: T1, CXCR2; design: method as in Boon et al., 2024; details: agonist concentration used in NanoBRET assays; ref Boon et al., 2024; cited from earlier work
# [5] = biological target: T1, CXCR2; design: method as in Boon et al., 2024; details: agonist concentration used in NanoBRET assays; ref Boon et al., 2024; cited from earlier work; remark: listed apart in the source
Molecule,Imax βarr1 (maximum observed inhibitory effect) ([1]; CXCL1 at EC80),Imax βarr1 (maximum observed inhibitory effect) ([1]; CXCL2 at EC80),Imax βarr1 (maximum observed inhibitory effect) ([1]; CXCL3 at EC80),Imax βarr1 (maximum observed inhibitory effect) ([1]; CXCL5 at EC80),Imax βarr1 (maximum observed inhibitory effect) ([1]; CXCL6 at EC80),Imax βarr1 (maximum observed inhibitory effect) ([1]; CXCL7 at EC80),Imax βarr1 (maximum observed inhibitory effect) ([1]; CXCL8 at EC80),"bias profile (bias plot), β-arrestin1 recruitment inhibition vs Gαi1 activation inhibition [2]",Imax Gαi1 (maximum observed inhibitory effect) ([3]; CXCL1 at EC80),Imax Gαi1 (maximum observed inhibitory effect) ([3]; CXCL2 at EC80),Imax Gαi1 (maximum observed inhibitory effect) ([3]; CXCL3 at EC80),Imax Gαi1 (maximum observed inhibitory effect) ([3]; CXCL5 at EC80),Imax Gαi1 (maximum observed inhibitory effect) ([3]; CXCL6 at EC80),Imax Gαi1 (maximum observed inhibitory effect) ([3]; CXCL7 at EC80),Imax Gαi1 (maximum observed inhibitory effect) ([3]; CXCL8 at EC80),β-arrestin EC80 [4],G-protein EC80 [5]
"C[C@H](CO)Nc1nc(SCc2cccc(Cl)c2F)nc2[nH]c(=O)sc12 [AZ10397767, reference compound]",100%,100%,100%,100%,100%,100%,100%,bias toward the inhibition of β-arrestin1 recruitment,100%,100%,98.8%,95.7%,100%,100%,98.5%,–,–
B1,–,–,–,–,–,–,–,–,–,–,–,–,–,–,–,100.70 nM,4.09 nM
